Earlier results in patent US20240153607A1, “System for Determining Treatment Timing and Methods of Treatment Timed Based on Biological Process Indicators” (Arcascope Inc., priority 2022, published 2024).

Conditions: cancer treatments in humans; [Hrushesky], [Lévi1990]

SMILES | time of day at which the drug is most tolerable (toxicity by time of day)
COc1cccc2c1C(=O)c1c(O)c3c(c(O)c1C2=O)C[C@@](O)(C(=O)CO)C[C@@H]3O[C@H]1C[C@H](N)[C@H](O[C@@H]2CCCCO2)[C@H](C)O1 [theprubicin] | most tolerable in the morning
COc1cccc2c1C(=O)c1c(O)c3c(c(O)c1C2=O)C[C@@](O)(C(=O)CO)C[C@@H]3O[C@H]1C[C@H](N)[C@H](O)[C@H](C)O1 [doxorubicin] | most tolerable in the morning
